These results are taken from patent publication US11618747B2, “LXR modulators with bicyclic core moiety” (OrsoBio, Inc., priority 2018, dated 2023).

Like-named read-outs stand apart in the source and are kept apart here.

For experiment [1], the target named is T1, LXRβ ligand-binding domain (Homo sapiens, UniProt P55055, DUP175-175).
T1 construct: amino acids 156-461; NP009052; made in house; host or cells: E. coli
T1 sequence (P55055 with tags, fused parts or gaps DUP175-175 limits assumed): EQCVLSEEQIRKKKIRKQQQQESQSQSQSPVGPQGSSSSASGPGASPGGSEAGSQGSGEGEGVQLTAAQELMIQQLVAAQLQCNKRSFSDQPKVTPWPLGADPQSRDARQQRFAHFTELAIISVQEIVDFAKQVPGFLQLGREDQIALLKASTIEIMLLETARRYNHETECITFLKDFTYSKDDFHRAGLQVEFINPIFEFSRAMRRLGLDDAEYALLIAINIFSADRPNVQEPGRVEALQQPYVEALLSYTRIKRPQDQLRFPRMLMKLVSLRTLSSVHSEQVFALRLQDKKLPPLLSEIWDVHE
The experiment can be described thus: TR-FRETβ activity assay (NCoA3 coactivator peptide recruitment). The class given is biochemical. In a few lines:
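GST-tagged human LXRβ LBD (aa 156-461, E. coli) at 76 nM with 400 nM biotinylated NCoA3 peptide in Tris/HCl pH 6.8, 240 mM KCl, BSA, 0.002% Triton-X-100, plus 1 μM 24(S)-25-epoxycholesterol as prestimulating agonist. Compounds at 50 μM down to 0.002 μM, 1 h at 4 °C. Coactivator recruitment by TR-FRET (Tb cryptate/XL665, 615/665 nm), triplicates.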

Another experiment concerns the target T2, full length (FL) LXRβ (Homo sapiens, UniProt P55055, DUP175-175).
T2 construct: the full length (FL) proteins of LXRα (amino acids 1-447); NP005684; NP009052; expressed in transfected cells; host or cells: HEK293
T2 sequence (P55055 with tags, fused parts or gaps DUP175-175): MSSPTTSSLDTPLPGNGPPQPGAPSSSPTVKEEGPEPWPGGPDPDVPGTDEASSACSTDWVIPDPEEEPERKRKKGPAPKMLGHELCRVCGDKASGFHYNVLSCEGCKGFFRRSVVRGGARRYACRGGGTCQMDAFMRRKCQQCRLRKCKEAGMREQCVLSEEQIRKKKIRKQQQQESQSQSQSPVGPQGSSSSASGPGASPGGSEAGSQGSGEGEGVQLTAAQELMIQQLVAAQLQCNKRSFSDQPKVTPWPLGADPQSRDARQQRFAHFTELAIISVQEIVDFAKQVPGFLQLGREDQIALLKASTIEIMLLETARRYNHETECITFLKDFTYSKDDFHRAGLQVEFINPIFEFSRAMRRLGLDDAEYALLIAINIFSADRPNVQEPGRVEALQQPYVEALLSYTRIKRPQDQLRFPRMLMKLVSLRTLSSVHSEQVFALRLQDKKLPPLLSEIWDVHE
The experiment is described as follows: LXR Gal4 reporter transient transfection assay (FL-M2H Gal4β). It is filed as cell-based. Particulars: HEK293 cells. In a few lines:
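Luminescence readout: Firefly luciferase driven by GAL4 response elements reports LXR–cofactor interaction, normalised against cotransfected Renilla luciferase. The system used HEK293 cells expressing LXR full length or ligand-binding domain fused to the NFkB activation domain, with SRC1 or NCoR domains on GAL4 DBD; compound exposure was 16 h.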

Setting [2] is: TR-FRET, 1 μM 24(S)-25-epoxycholesterol prestimulation, read-out: FRETβ (EC50 range).
[3] abbreviates: full length LXRβ, read-out: FL-M2H Gal4β (EC50 range).
[4] abbreviates: 1 μM 24(S)-25-epoxycholesterol as prestimulating agonist.
[5] abbreviates: 1 μM 24(S)-25-epoxycholesterol as prestimulating agonist, read-out: FRETβ potency.

As for `Cc1ccc(S(=O)(=O)n2c(-c3cccc(N4CC(C(=O)O)C4)c3)c(-c3ccsc3C#N)c3cc(F)c(Cl)cc32)cc1` [3/43], the EC50 was 1000 to 10000 nM in experiment [1] (setting [2]) and less than 100 nM on full length (FL) LXRβ (setting [3]).

As to `N#Cc1nccnc1-c1c(-c2cccc(-c3cc(F)c(C(=O)O)cc3Cl)c2)n(S(=O)(=O)c2ccc(C(F)F)cc2)c2ccc(F)cc12` [11/11], the EC50 (in experiment [1] (setting [2]); on full length (FL) LXRβ (setting [3])) was less than 100 nM each time.

As for `N#Cc1ccccc1-c1c(-c2cccc(-c3ccc(C(=O)O)cc3Cl)c2)n(S(=O)(=O)c2ccc(C(F)F)cc2)c2ccc(F)cc12` [11/33], in experiment [1] (setting [4]), the “FRETβ efficacy (value in brackets)” value is −99%. The EC50 in experiment [1] (setting [5]) is 19 nM; in experiment [1] (setting [2]), less than 100 nM; on full length (FL) LXRβ (setting [3]) it was less than 100 nM; at full length (FL) LXRβ (read-out: FL-M2H Gal4β potency), 1.7 nM. In addition, the “FL-M2H Gal4β efficacy (value in brackets)” value on full length (FL) LXRβ is listed as 130%.

With `Cc1ccc(S(=O)(=O)n2c(-c3cccc(-c4ccc(C(=O)O)cc4)c3)c(-c3ccsc3C#N)c3cc(F)ccc32)cc1C` [23/2], the EC50 in experiment [1] (setting [2]) is 100 to 1000 nM; on full length (FL) LXRβ (setting [3]), less than 100 nM.

For the compound `Cc1ccc(S(=O)(=O)n2c(-c3cccc(N4CC(C(=O)O)C4)c3)c(-c3ccsc3C#N)c3cc(Cl)ccc32)cc1` [3/44], the EC50 is 1000 to 10000 nM in experiment [1] (setting [2]) and less than 100 nM at full length (FL) LXRβ (setting [3]).

Consider `N#Cc1cccc(C#N)c1-c1c(-c2cccc(-c3cc(F)c(C(=O)O)cc3Cl)c2)n(S(=O)(=O)c2ccc(C(F)F)cc2)c2ccc(F)cc12` [11/65], for which the EC50 (in experiment [1] (setting [2]); at full length (FL) LXRβ (setting [3])) was less than 100 nM in each case.

Turning to `Cc1ccc(S(=O)(=O)n2c(-c3cccc(-c4ccc(C(=O)O)cc4)c3)c(-c3ccsc3C#N)c3cc(F)ccc32)cc1` [5/3], the results for the EC50 (in experiment [1] (setting [2]); at full length (FL) LXRβ (setting [3])) were 100 to 1000 nM and less than 100 nM, respectively.

Take `N#Cc1cccc(C#N)c1-c1c(-c2cccc(-c3ccc(C(=O)O)cc3F)c2)n(S(=O)(=O)c2ccc(C(F)F)cc2)c2ccc(F)cc12` [11/51]: the EC50 (in experiment [1] (setting [2]); at full length (FL) LXRβ (setting [3])) was less than 100 nM throughout.

Regarding `N#Cc1sccc1-c1c(-c2cccc(-c3ccc(C(=O)O)cc3Cl)c2)n(S(=O)(=O)c2ccc(C(F)(F)F)nc2)c2ccc(F)cc12` [11/16], the results for the EC50 (in experiment [1] (setting [2]); at full length (FL) LXRβ (setting [3])) were 100 to 1000 nM and less than 100 nM, respectively.

Consider `O=C(O)c1ccc(-c2cccc(-c3c(-c4c(Cl)cccc4Cl)c4cc(F)ccc4n3S(=O)(=O)c3ccc(C(F)F)cc3)c2)c(Cl)c1` [11/13], for which the EC50 (in experiment [1] (setting [2]); at full length (FL) LXRβ (setting [3])) was less than 100 nM throughout.

Consider `N#Cc1cccc(C#N)c1-c1c(-c2cccc(-c3ccc(C(=O)NCCS(=O)(=O)O)cc3Cl)c2)n(S(=O)(=O)c2ccc(C(F)F)cc2)c2ccc(F)cc12` [10/1], for which the EC50 (in experiment [1] (setting [2]); on full length (FL) LXRβ (setting [3])) was less than 100 nM in each case.

`CC(=O)NS(=O)(=O)c1ccc(-c2cccc(-c3c(-c4c(C#N)cccc4C#N)c4cc(F)ccc4n3S(=O)(=O)c3ccc(C(F)F)cc3)c2)c(Cl)c1` [8/8]: the EC50 (in experiment [1] (setting [2]); on full length (FL) LXRβ (setting [3])) was less than 100 nM throughout.

On to `O=C(O)c1ccc(-c2cccc(-c3c(-c4ncccc4C(F)(F)F)c4cc(F)ccc4n3S(=O)(=O)c3ccc(C(F)F)cc3)c2)c(Cl)c1` [11/23], for which the EC50 (in experiment [1] (setting [2]); at full length (FL) LXRβ (setting [3])) was less than 100 nM throughout.

As to `COc1c(C(=O)O)ccc(-c2cccc(-c3c(-c4ccccc4C#N)c4cc(F)ccc4n3S(=O)(=O)c3ccc(C(F)F)cc3)c2)c1Cl` [11/27], the EC50 (in experiment [1] (setting [2]); on full length (FL) LXRβ (setting [3])) was less than 100 nM in each case.

For the compound `Cc1ccc(S(=O)(=O)n2c(-c3cccc(C45CCC(C(=O)O)(CC4)CC5)c3)c(-c3ccsc3C#N)c3cc(F)ccc32)cc1` [3/64], the results for the EC50 (in experiment [1] (setting [2]); on full length (FL) LXRβ (setting [3])) were 100 to 1000 nM and less than 100 nM, respectively.

With `N#Cc1cccc(C#N)c1-c1c(-c2cccc(-c3ccc(C(=O)O)cc3Cl)c2)n(S(=O)(=O)c2ccc(C(F)F)cc2)c2ccc(F)cc12` [11/12], the EC50 (in experiment [1] (setting [2]); at full length (FL) LXRβ (setting [3])) was less than 100 nM in each case.

As to `Cc1ccc(S(=O)(=O)n2c(-c3cccc(N4CC(C(=O)O)C4)c3)c(-c3ccsc3C#N)c3cc(F)c(F)cc32)cc1` [3/42], the EC50 was 1000 to 10000 nM in experiment [1] (setting [2]) and less than 100 nM on full length (FL) LXRβ (setting [3]).

Take `N#Cc1cccc(C#N)c1-c1c(-c2cccc(-c3c(F)cc(CC(=O)O)cc3F)c2)n(S(=O)(=O)c2ccc(C(F)F)cc2)c2ccc(F)cc12` [3/73]: the EC50 (in experiment [1] (setting [2]); at full length (FL) LXRβ (setting [3])) was less than 100 nM each time.

With `N#Cc1cccc(C#N)c1-c1c(-c2cccc(-c3c(F)cc(C(=O)O)cc3F)c2)n(S(=O)(=O)c2ccc(C(F)F)cc2)c2ccc(F)cc12` [11/53], the EC50 (in experiment [1] (setting [2]); on full length (FL) LXRβ (setting [3])) was less than 100 nM each time.

On to `CN(CCS(=O)(=O)O)C(=O)c1ccc(-c2cccc(-c3c(-c4c(C#N)cccc4C#N)c4cc(F)ccc4n3S(=O)(=O)c3ccc(C(F)F)cc3)c2)c(Cl)c1` [10/2], for which the EC50 (in experiment [1] (setting [2]); on full length (FL) LXRβ (setting [3])) was less than 100 nM each time.

For the compound `N#Cc1cccc(C#N)c1-c1c(-c2cccc(-c3ccc(C(=O)O)cc3Cl)c2)n(S(=O)(=O)c2ccc(C(F)(F)F)nc2)c2ccc(F)cc12` [11/37], the EC50 (in experiment [1] (setting [2]); at full length (FL) LXRβ (setting [3])) was less than 100 nM throughout.

As for `N#Cc1cccc(C#N)c1-c1c(-c2cccc(-c3ccc(C(=O)O)cc3Cl)c2)n(S(=O)(=O)C2CCC(F)(F)CC2)c2ccc(F)cc12` [11/63], the EC50 in experiment [1] (setting [2]) is 100 to 1000 nM; on full length (FL) LXRβ (setting [3]) it was less than 100 nM.

In the case of `Cc1ccc(S(=O)(=O)n2c(-c3cccc(N4CC(C(=O)O)C4)c3)c(-c3ccsc3C#N)c3cc(F)ccc32)cc1` [3/32], the “FRETβ efficacy (value in brackets)” value in experiment [1] (setting [4]) was −98%. Also, the EC50 was 551 nM in experiment [1] (setting [5]), 100 to 1000 nM in experiment [1] (setting [2]) and less than 100 nM on full length (FL) LXRβ (setting [3]).

With `N#Cc1ccccc1-c1c(-c2cccc(-c3ccc(C(=O)O)cc3Cl)c2)n(S(=O)(=O)c2ccc(C(F)F)cc2)c2cnccc12` [11/49], the EC50 (in experiment [1] (setting [2]); at full length (FL) LXRβ (setting [3])) was less than 100 nM throughout.

In the case of `Cc1ccc(S(=O)(=O)n2c(-c3cccc(-c4ccc(C(=O)O)cc4Cl)c3)c(-c3ccsc3C#N)c3cc(F)ccc32)cc1` [3/48], the EC50 was 100 to 1000 nM in experiment [1] (setting [2]) and less than 100 nM at full length (FL) LXRβ (setting [3]).

Turning to `N#Cc1cccnc1-c1c(-c2cccc(-c3ccc(C(=O)O)cc3Cl)c2)n(S(=O)(=O)c2ccc(C(F)F)cc2)c2ccc(F)cc12` [11/26], the EC50 (in experiment [1] (setting [2]); at full length (FL) LXRβ (setting [3])) was less than 100 nM throughout.

Turning to `Cc1ccc(S(=O)(=O)n2c(-c3cccc(N4CC(C(=O)O)C4)c3)c(-c3ccsc3C#N)c3cc(C)ccc32)cc1` [3/46], the EC50 in experiment [1] (setting [2]) is 100 to 1000 nM; at full length (FL) LXRβ (setting [3]), less than 100 nM.

For the compound `N#Cc1cccc(C#N)c1-c1c(-c2cccc(-c3ccc(C(=O)NCC(=O)O)cc3Cl)c2)n(S(=O)(=O)c2ccc(C(F)F)cc2)c2ccc(F)cc12` [21/3], the EC50 (in experiment [1] (setting [2]); at full length (FL) LXRβ (setting [3])) was less than 100 nM each time.

Take `O=C(O)c1ccc(-c2cccc(-c3c(-c4ccccc4C4COC4)c4cc(F)ccc4n3S(=O)(=O)c3ccc(C(F)F)cc3)c2)c(Cl)c1` [3/59]: the EC50 (in experiment [1] (setting [2]); at full length (FL) LXRβ (setting [3])) was less than 100 nM each time.
